Read-outs that look alike come from different tables or passages of the source.
System: Stat3-ER expressing A375 cells
Type: cell-based
Protocol: In order to understand Stat3's ability to affect cell proliferation and cell death, we have examined the profile of genes expressed upon Stat3 activation in A375 cells using oligonucleotide microarrays.
Briefly, microarray analysis was performed using HG U95A GeneChips™ (Affymetrix, Santa Clara, USA) essentially according to the manufacturer's instructions. […] RNA from three independent experiments was pooled and biotin-labeled cRNA probes were generated from each sample starting from 10 μg of total cellular RNA. The resulting biotinylated cRNAs were hybridized to the Affymetrix U95A oligonucleotide array containing more than 12,000 sequences and signals detected. Chip analysis was performed using the Affymetrix Microarray Suite v5 (target intensity 500 used for chip scaling) and GeneSpring 4.2.1 (Silicon Genetics). Changes in gene expression were assessed by looking for concordant changes between replicates using a signed Wilcoxon rank test (as recommended by Affymetrix).

CCC(=C(c1ccc(O)cc1)c1ccc(OCCN(C)C)cc1)c1ccccc1 [4HT, 4-hydroxytamoxifen, reference compound]
expression change (fold): Absent in melanoma 2 (Avge of clones): 2.1 | expression change (fold): Alpha-1-antichymotrypsin precursor (Avge of clones): 2.5 | expression change (fold): Aquaporin 3 (Avge of clones): 5.2 | expression change (fold): Brain-derived neurotrophic factor (Avge of clones): 6.3 | expression change (fold): CCAAT/enhancer binding protein (C/EBP), delta (Avge of clones): 4.6 | expression change (fold): Cathepsin L (Avge of clones): 3.7 | expression change (fold): Cytokine receptor-like factor 1 (Avge of clones): 4.8 | expression change (fold): Death-associated protein kinase 1 (Avge of clones): 5.3 | expression change (fold): Ephrin A1 precursor (Avge of clones): 4.0 | expression change (fold): Ets variant gene 6 (Avge of clones): 4.2 | expression change (fold): Fibronectin (Avge of clones): 4.5 | expression change (fold): Fibronectin 1, isoform 1 preproprotein (Avge of clones): 5.2 | expression change (fold): Glycine dehydrogenase (decarboxylating, glycine decdarboxylase, glycine cleavage system protein P) (Avge of clones): 1.7 | expression change (fold): H. sapiens mRNA; cDNA DZFZp586N012 (Avge of clones): 2.3 | expression change (fold): I factor (complement) (Avge of clones): 2.9 | expression change (fold): Insulin-like growth factor binding protein 3 (Avge of clones): 3.9 | expression change (fold): Intercellular adhesion molecule 1 precursor (Avge of clones): 2.4 | expression change (fold): Interferon induced transmembrane protein 1 (9-27) (Avge of clones): 2.8 | expression change (fold): Interleukin 8 (Avge of clones): 4.9 | expression change (fold): Jun B proto-oncogene (Avge of clones): 3.0 | expression change (fold): KIAA0161 gene product (Avge of clones): 2.4 | expression change (fold): KIAA0303 protein (Avge of clones): 2.9 | expression change (fold): KIAA0500 protein (Avge of clones): 4.2 | expression change (fold): Killer cell lectin-like receptor subfamily C, member 2 (Avge of clones): 6.1 | expression change (fold): Killer cell lectin-like receptor subfamily C, member 3 isoform NKG2-E (Avge of clones): 10.3 | expression change (fold): Kynureninase (L-kynurenine hydrolase) (Avge of clones): 3.6 | expression change (fold): Major vault protein (Avge of clones): 2.8 | expression change (fold): Nicotinamide N-methyltransferase (Avge of clones): 2.6 | expression change (fold): Niemann-Pick disease, type C1 (Avge of clones): 2.2 | expression change (fold): Oncostatin M receptor (Avge of clones): 3.3 | expression change (fold): Osteoprotegrin (Avge of clones): 8.6 | expression change (fold): Prostatic acid phosphatase precursor (Avge of clones): 10.5 | expression change (fold): Ras-induced senescence 1 (Avge of clones): 2.4 | expression change (fold): Regenerating islet-derived 1 alpha (pancreatic stone protein, pancreatic thread protein) (Avge of clones): 4.0 | expression change (fold): Regulator of G protein signalling 16 (Avge of clones): 5.3 | expression change (fold): STAT induced STAT inhibitor 3 (Avge of clones): 9.9 | expression change (fold): Secreted phosphoprotein 1 (osteopontin, bone sialoprotein 1, early T-lymphocyte activation 1) (Avge of clones): 25.5 | expression change (fold): Serine (or cysteine) protease inhibitor, clade B (ovalbumin), member 3 (Avge of clones): 100.2 | expression change (fold): Small inducible cytokine A2 (monocyte chemotactic protein 1) (Avge of clones): 2.4 | expression change (fold): Solute carrier family 2 (facilitated glucose transporter), member 3 (Avge of clones): 2.6 | expression change (fold): Stanniocalcin 1 (Avge of clones): 6.7 | expression change (fold): Tyrosine phosphatase/TIGR = HG620-HT620 (Avge of clones): 2.2 | expression change (fold): v-fos FBJ murine osteosarcoma viral gene homologue (Avge of clones): 3.9 | expression change (fold): v-jun avian sarcoma virus 17 oncogene homologue (Avge of clones): 4.9 | expression change (fold): v-maf musculoaponeurotic fibrosarcoma oncogene homologue (avian) (Avge of clones): 1.6 | expression change (fold): Aquaporin 3 (Avge of clones, 2nd listing): 4.4 | expression change (fold): Fibronectin 1, isoform 1 preproprotein (Avge of clones, 2nd listing): 5.0 | expression change (fold): Insulin-like growth factor binding protein 3 (Avge of clones, 2nd listing): 3.1 | expression change (fold): Interleukin 8 (Avge of clones, 2nd listing): 2.6 | expression change (fold): Kynureninase (L-kynurenine hydrolase) (Avge of clones, 2nd listing): 3.3 | expression change (fold): Oncostatin M receptor (Avge of clones, 2nd listing): 3.3 | expression change (fold): Prostatic acid phosphatase precursor (Avge of clones, 2nd listing): 2.8 | expression change (fold): Secreted phosphoprotein 1 (osteopontin, bone sialoprotein 1, early T-lymphocyte activation 1) (Avge of clones, 2nd listing): 18.4 | expression change (fold): v-jun avian sarcoma virus 17 oncogene homologue (Avge of clones, 2nd listing): 4.3 | expression change (fold): Kynureninase (L-kynurenine hydrolase) (Avge of clones, 3rd listing): 2.9 | expression change (fold): Absent in melanoma 2 (Clone1): 2.2 | expression change (fold): Alpha-1-antichymotrypsin precursor (Clone1): 2.7 | expression change (fold): Aquaporin 3 (Clone1): 5.2 | expression change (fold): Brain-derived neurotrophic factor (Clone1): 8.9 | expression change (fold): CCAAT/enhancer binding protein (C/EBP), delta (Clone1): 5.6 | expression change (fold): Cathepsin L (Clone1): 3.6 | expression change (fold): Cytokine receptor-like factor 1 (Clone1): 5.2 | expression change (fold): Death-associated protein kinase 1 (Clone1): 5.7 | expression change (fold): Ephrin A1 precursor (Clone1): 2.8 | expression change (fold): Ets variant gene 6 (Clone1): 3.9 | expression change (fold): Fibronectin (Clone1): 4.3 | expression change (fold): Fibronectin 1, isoform 1 preproprotein (Clone1): 7.7 | expression change (fold): Glycine dehydrogenase (decarboxylating, glycine decdarboxylase, glycine cleavage system protein P) (Clone1): 1.8 | expression change (fold): H. sapiens mRNA; cDNA DZFZp586N012 (Clone1): 2.6 | expression change (fold): I factor (complement) (Clone1): 3.8 | expression change (fold): Insulin-like growth factor binding protein 3 (Clone1): 2.5 | expression change (fold): Intercellular adhesion molecule 1 precursor (Clone1): 2.8 | expression change (fold): Interferon induced transmembrane protein 1 (9-27) (Clone1): 3.1 | expression change (fold): Interleukin 8 (Clone1): 2.3 | expression change (fold): Jun B proto-oncogene (Clone1): 3.3 | expression change (fold): KIAA0161 gene product (Clone1): 2.5 | expression change (fold): KIAA0303 protein (Clone1): 4.2 | expression change (fold): KIAA0500 protein (Clone1): 1.6 | expression change (fold): Killer cell lectin-like receptor subfamily C, member 2 (Clone1): 9.5 | expression change (fold): Killer cell lectin-like receptor subfamily C, member 3 isoform NKG2-E (Clone1): 18.4 | expression change (fold): Kynureninase (L-kynurenine hydrolase) (Clone1): 4.0 | expression change (fold): Major vault protein (Clone1): 3.6 | expression change (fold): Nicotinamide N-methyltransferase (Clone1): 2.7 | expression change (fold): Niemann-Pick disease, type C1 (Clone1): 2.3 | expression change (fold): Oncostatin M receptor (Clone1): 4.3 | expression change (fold): Osteoprotegrin (Clone1): 12.9 | expression change (fold): Prostatic acid phosphatase precursor (Clone1): 9.3 | expression change (fold): Ras-induced senescence 1 (Clone1): 2.4 | expression change (fold): Regenerating islet-derived 1 alpha (pancreatic stone protein, pancreatic thread protein) (Clone1): 4.7 | expression change (fold): Regulator of G protein signalling 16 (Clone1): 6.9 | expression change (fold): STAT induced STAT inhibitor 3 (Clone1): 9.2 | expression change (fold): Secreted phosphoprotein 1 (osteopontin, bone sialoprotein 1, early T-lymphocyte activation 1) (Clone1): 10.8 | expression change (fold): Serine (or cysteine) protease inhibitor, clade B (ovalbumin), member 3 (Clone1): 103.0 | expression change (fold): Small inducible cytokine A2 (monocyte chemotactic protein 1) (Clone1): 2.8 | expression change (fold): Solute carrier family 2 (facilitated glucose transporter), member 3 (Clone1): 2.9 | expression change (fold): Stanniocalcin 1 (Clone1): 5.2 | expression change (fold): Tyrosine phosphatase/TIGR = HG620-HT620 (Clone1): 2.3 | expression change (fold): v-fos FBJ murine osteosarcoma viral gene homologue (Clone1): 3.6 | expression change (fold): v-jun avian sarcoma virus 17 oncogene homologue (Clone1): 3.6 | expression change (fold): v-maf musculoaponeurotic fibrosarcoma oncogene homologue (avian) (Clone1): 1.2 | expression change (fold): Aquaporin 3 (Clone1, 2nd listing): 5.7 | expression change (fold): Fibronectin 1, isoform 1 preproprotein (Clone1, 2nd listing): 6.8 | expression change (fold): Insulin-like growth factor binding protein 3 (Clone1, 2nd listing): 2.3 | expression change (fold): Interleukin 8 (Clone1, 2nd listing): 2.9 | expression change (fold): Kynureninase (L-kynurenine hydrolase) (Clone1, 2nd listing): 4.3 | expression change (fold): Oncostatin M receptor (Clone1, 2nd listing): 4.2 | expression change (fold): Prostatic acid phosphatase precursor (Clone1, 2nd listing): 3.3 | expression change (fold): Secreted phosphoprotein 1 (osteopontin, bone sialoprotein 1, early T-lymphocyte activation 1) (Clone1, 2nd listing): 16.9 | expression change (fold): v-jun avian sarcoma virus 17 oncogene homologue (Clone1, 2nd listing): 5.6 | expression change (fold): Kynureninase (L-kynurenine hydrolase) (Clone1, 3rd listing): 3.9 | expression change (fold): Absent in melanoma 2 (Clone2): 2.0 | expression change (fold): Alpha-1-antichymotrypsin precursor (Clone2): 2.3 | expression change (fold): Aquaporin 3 (Clone2): 5.1 | expression change (fold): Brain-derived neurotrophic factor (Clone2): 3.6 | expression change (fold): CCAAT/enhancer binding protein (C/EBP), delta (Clone2): 3.7 | expression change (fold): Cathepsin L (Clone2): 3.8 | expression change (fold): Cytokine receptor-like factor 1 (Clone2): 4.3 | expression change (fold): Death-associated protein kinase 1 (Clone2): 4.8 | expression change (fold): Ephrin A1 precursor (Clone2): 5.2 | expression change (fold): Ets variant gene 6 (Clone2): 4.5 | expression change (fold): Fibronectin (Clone2): 4.6 | expression change (fold): Fibronectin 1, isoform 1 preproprotein (Clone2): 2.6 | expression change (fold): Glycine dehydrogenase (decarboxylating, glycine decdarboxylase, glycine cleavage system protein P) (Clone2): 1.6 | expression change (fold): H. sapiens mRNA; cDNA DZFZp586N012 (Clone2): 2.0 | expression change (fold): I factor (complement) (Clone2): 2.0 | expression change (fold): Insulin-like growth factor binding protein 3 (Clone2): 5.4 | expression change (fold): Intercellular adhesion molecule 1 precursor (Clone2): 2.1 | expression change (fold): Interferon induced transmembrane protein 1 (9-27) (Clone2): 2.5 | expression change (fold): Interleukin 8 (Clone2): 7.4 | expression change (fold): Jun B proto-oncogene (Clone2): 2.6 | expression change (fold): KIAA0161 gene product (Clone2): 2.4 | expression change (fold): KIAA0303 protein (Clone2): 1.7 | expression change (fold): KIAA0500 protein (Clone2): 6.7 | expression change (fold): Killer cell lectin-like receptor subfamily C, member 2 (Clone2): 2.7 | expression change (fold): Killer cell lectin-like receptor subfamily C, member 3 isoform NKG2-E (Clone2): 2.2 | expression change (fold): Kynureninase (L-kynurenine hydrolase) (Clone2): 3.2 | expression change (fold): Major vault protein (Clone2): 2.0 | expression change (fold): Nicotinamide N-methyltransferase (Clone2): 2.5 | expression change (fold): Niemann-Pick disease, type C1 (Clone2): 2.2 | expression change (fold): Oncostatin M receptor (Clone2): 2.4 | expression change (fold): Osteoprotegrin (Clone2): 4.4 | expression change (fold): Prostatic acid phosphatase precursor (Clone2): 11.7 | expression change (fold): Ras-induced senescence 1 (Clone2): 2.5 | expression change (fold): Regenerating islet-derived 1 alpha (pancreatic stone protein, pancreatic thread protein) (Clone2): 3.4 | expression change (fold): Regulator of G protein signalling 16 (Clone2): 3.7 | expression change (fold): STAT induced STAT inhibitor 3 (Clone2): 10.5 | expression change (fold): Secreted phosphoprotein 1 (osteopontin, bone sialoprotein 1, early T-lymphocyte activation 1) (Clone2): 40.1 | expression change (fold): Serine (or cysteine) protease inhibitor, clade B (ovalbumin), member 3 (Clone2): 97.5 | expression change (fold): Small inducible cytokine A2 (monocyte chemotactic protein 1) (Clone2): 2.0 | expression change (fold): Solute carrier family 2 (facilitated glucose transporter), member 3 (Clone2): 2.3 | expression change (fold): Stanniocalcin 1 (Clone2): 8.3 | expression change (fold): Tyrosine phosphatase/TIGR = HG620-HT620 (Clone2): 2.1 | expression change (fold): v-fos FBJ murine osteosarcoma viral gene homologue (Clone2): 4.1 | expression change (fold): v-jun avian sarcoma virus 17 oncogene homologue (Clone2): 6.3 | expression change (fold): v-maf musculoaponeurotic fibrosarcoma oncogene homologue (avian) (Clone2): 2.0 | expression change (fold): Aquaporin 3 (Clone2, 2nd listing): 3.2 | expression change (fold): Fibronectin 1, isoform 1 preproprotein (Clone2, 2nd listing): 3.3 | expression change (fold): Insulin-like growth factor binding protein 3 (Clone2, 2nd listing): 3.9 | expression change (fold): Interleukin 8 (Clone2, 2nd listing): 2.2 | expression change (fold): Kynureninase (L-kynurenine hydrolase) (Clone2, 2nd listing): 2.4 | expression change (fold): Oncostatin M receptor (Clone2, 2nd listing): 2.5 | expression change (fold): Prostatic acid phosphatase precursor (Clone2, 2nd listing): 2.4 | expression change (fold): Secreted phosphoprotein 1 (osteopontin, bone sialoprotein 1, early T-lymphocyte activation 1) (Clone2, 2nd listing): 20.0 | expression change (fold): v-jun avian sarcoma virus 17 oncogene homologue (Clone2, 2nd listing): 3.1 | expression change (fold): Kynureninase (L-kynurenine hydrolase) (Clone2, 3rd listing): 2.0 | number of genes significantly decreased (after 24 hrs of treatment): 23 genes | number of genes significantly increased (after 24 hrs of treatment): 154 genes | number of genes upregulated more than two-fold (after 24 hrs of treatment): 39 genes | SOCS3 expression (as early as 1 hr after treatment): rapidly increased

— US20080064027A1, “TEL/Etv6-mediated inhibition of cell proliferation” (priority 2002, published 2008)
